# In US9271960B2, “Tetrahydrocarbazoles as active agents for inhibiting VEGF production by translational control” (PTC Therapeutics, Inc., priority 2004, dated 2016):
# Structures can show the parent of a compound that is named as a salt. Where two headings read alike, the source gives them in different places.
# Tested on: VEGF
# Experiment: Hypoxia-inducible endogenous VEGF expression ELISA in HeLa cells
# Format: cell-based
# Settings: VEGF protein by ELISA
# Procedure, shortened: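 HeLa cells held 24–48 h in hypoxia (1% O2) with a concentration series of compound; VEGF secreted into media quantified by ELISA against a standard curve. Parallel Cell Titer Glo viability under identical conditions gives CC50; EC50 from percent-inhibition curves.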
# [1] = Homo sapiens, HeLa, purchased compounds 156-188, hypoxic conditions, read-out: ELISA Activity
# [2] = Homo sapiens, HeLa, purchased compounds 156-188, hypoxic conditions, read-out: ELISA EC50
# [3] = Homo sapiens, HeLa, compounds 191-239, hypoxic conditions, read-out: ELISA Activity EC50
Compound,EC50 [1] [µM],EC50 [2] [µM],EC50 [3] [µM],further results
"c1ccc(CN2CCn3c4c(c5ccccc53)CCCC42)cc1 (centres unmarked) [Compound 163, 3-Benzyl2,3,3a,4,5,6-hexahydro-1H-pyrazino[3,2,1-jk]carbazole]",> 1,1.79,,
"S=C(Nc1ccccc1)N1CCn2c3c(c4cc(C5CCCCC5)ccc42)CCCC31 (centres unmarked) [Compound 164, 8-Cyclohexyl-1,2,3a,4,5,6-hexahydro-pyrazino[3,2,1-jk]carbazole-3-carbothioic acid phenylamide]",> 1,2.17,,
"COC(CNC1CCCc2c1[nH]c1ccc(C)cc21)OC (centres unmarked) [Compound 165, (2,2-Dimethoxy-ethyl)-(6-methyl-2,3,4,9-tetrahydro-1H-carbazol-1-yl)-amine]",> 1,5.2,,
"C1=C(c2ccc3c(c2)c2c4n3CCN(Cc3ccccc3)C4CCC2)C2CCN1CC2 (centres unmarked) [Compound 166, 8-(1-Aza-bicyclo[2.2.2]oct-2-en-3-yl)-3-benzyl-2,3,3a,4,5,6-hexahydro-1H-pyrazino[3,2,1-jk]carbazole]",> 1,6.63,,
"CC(C)COc1ccc2c(c1)c1c3n2CCNC3CCC1 (centres unmarked) [Compound 167, 8-Isobutoxy-2,3,3a,4,5,6-hexahydro-1H-pyrazino[3,2,1-jk]carbazole]",> 1,6.93,,
"OCCNC1CCCc2c1[nH]c1ccc(Br)cc21 (centres unmarked) [Compound 168, 2-(6-Bromo-2,3,4,9-tetrahydro-1H carbazol-1-ylamino)-ethanol hydrochloride]",> 1,7.72,,
"Cc1ccc2c(c1)c1c3n2CCNC3CCC1 (centres unmarked) [Compound 169, 8-Methyl-2,3,3a,4,5,6-hexahydro-1H-pyrazino[3,2,1-jk]carbazole hydrochloride]",> 1,> 10,,
"Cc1ccc2c(c1)c1c3n2CCN(C(=O)CN2CCN(C(=O)c4ccco4)CC2)C3CCC1 (centres unmarked) [Compound 170, 2-[4-(Furan-2-carbonyl)-piperazin-1-yl]-(8-methyl-1,2,3,3a,4,5,6-hexahydro-pyrazino[3,2,1-jk]carbazol-3-yl)-ethanone]",> 1,> 10,,
"Cc1ccc2c(c1)c1c3n2CCN(C(=O)c2ccccc2Cl)C3CCC1 (centres unmarked) [Compound 171, (2-Chloro-phenyl)-(8-methyl-1,2,3a,4,5,6-hexahydro-pyrazino[3,2,1-jk]carbazol-3-yl)-methanone]",> 1,> 10,,
"COc1ccc(NC(=S)N2CCn3c4c(c5cc(C)ccc53)CCCC42)cc1 (centres unmarked) [Compound 172, 8-Methyl-1,2,3a,4,5,6-hexahydro-pyrazino[3,2,1-jk]carbazole-3-carbothioic acid (4-methoxy-phenyl)-amide]",> 1,> 10,,
"Cc1ccc2c(c1)c1c3n2CCCNC3CCC1 (centres unmarked) [Compound 173, 11-Methyl-1,2,3,3a,4,5,6,7-octahydro-[1,4]diazepino[3,2,1-jk]carbazole]",> 1,> 10,,
"CC(=O)N(Cc1ccccc1)C1CCCc2c1[nH]c1ccc(C)cc21 (centres unmarked) [Compound 174, N-Benzyl-N-(6-methyl-2,3,4,9-tetrahydro-1H-carbazol-1-yl)-acetamide]",> 1,> 10,,
"CC(=O)N1CCn2c3c(c4cc(C)ccc42)CCCC31 (centres unmarked) [Compound 175, 1-(8-Methyl-1,2,3a,4,5,6-hexahydro-pyrazino[3,2,1-jk]carbazol-3-yl)-ethanone]",> 1,> 10,,
"Cc1ccc2c(c1)c1c3n2CCN(CC(C)O)C3CCC1 (centres unmarked) [Compound 176, 1-(8-Methyl-1,2,3a,4,5,6-hexahydro-pyrazino[3,2,1-jk]carbazoI-3-yl)-propan-2-ol]",> 1,> 10,,
"Cc1ccc2[nH]c3c(c2c1)CCCC3NCCCO (centres unmarked) [Compound 177, 3-(6-Methyl-2,3,4,9-tetrahydro-1H-carbazol-1-ylamino)-propan-1-ol]",> 1,> 10,,
"CC(=O)NC1CCCc2c1[nH]c1ccc(C)cc21 (centres unmarked) [Compound 178, N-(6-Methyl-2,3,4,9-tetrahydro-1H-carbazol-1-yl)-acetamide]",> 1,> 10,,
"Cc1ccc2c(c1)c1c3n2CCN(C(C)c2ccccc2)C3CCC1 (centres unmarked) [Compound 179, 8-Methyl-3-(1-phenyl-ethyl)-2,3,3a,4,5,6-hexahydro-1H-pyrazino[3,2,1-jk]carbazole]",> 1,> 10,,
"Cc1ccc2c(c1)c1c3n2CCCN(Cc2cccc(Cl)c2)C3CCC1 (centres unmarked) [Compound 180, 4-(3-Chloro-benzyl)-11-methyl-1,2,3,3a,4,5,6,7-octahydro-[1,4]diazepino[3,2,1-jk]carbazole]",> 1,> 10,,
"CC(=O)Nc1ccc(CN2CCCn3c4c(c5cc(C)ccc53)CCCC42)cc1 (centres unmarked) [Compound 181, N-[4-(11-Methyl-1,2,3,3a,6,7-hexahydro-5H-[1,4]diazepino[3,2,1-jk]carbazol-4-ylmethyl)-phenyl]-acetamide]",> 1,> 10,,
"CC(=O)SCCC(=O)N1CCn2c3c(c4cc(C)ccc42)CCCC31 (stereo not drawn) [Compound 182, Thioacetic acid S-[3-(8-methyl-1,2,3a,4,5,6-hexahydro-pyrazino[3,2,1-jk]carbazol-3-yl)-3-oxo-propyl] ester]",> 1,> 10,,
"CC(=O)N1CCn2c3c(c4cc(C(=O)O)ccc42)CCCC31 (centres unmarked) [Compound 184, 3-Acetyl-2.3,3a,4,5,6-hexahydro-1H-pyrazino[3,2,1-jk]carbazole-8-carboxylic acid]",> 1,> 10,,
"CCNC1CCCc2c1[nH]c1ccc(C)cc21 (centres unmarked) [Compound 185, Ethyl-(6-methyl-2,3,4,9-tetrahydro-1H-carbazol-1-yl)-amine]",> 1,> 10,,
"OCCNC1CCCc2c1[nH]c1ccc(Br)cc21 (centres unmarked) [Compound 186, 2-(6-Bromo-2,3,4,9-tetrahydro-1H-carbazol-1-ylamino)-ethanol hydrochloride]",,,,"EC50 (purchased compounds 156-188, hypoxic conditions, hydrochloride, read-out: ELISA EC50): 12.2 µM; EC50 (purchased compounds 156-188, hypoxic conditions, read-out: ELISA Activity): > 1 µM"

# More lines, main results first:
EC50 [1] [µM],EC50 [2] [µM],EC50 [3] [µM],Compound,further results
> 1,18,,"COc1ccc(Oc2ccc3c(c2)c2c4n3CCNC4CCC2)cc1 (centres unmarked) [Compound 187, 8-(4-Methoxy-phenoxy)-2,3,3a,4,5,6-hexahydro-1H-pyrazino[3,2,1-jk]carbazole methanesulfonic acid]",
,,< 0.01,Cc1cc(C(=O)NC2CCCc3c2[nH]c2ccc(Br)cc32)no1 (centres unmarked) [Compound 191],
,,< 0.01,COc1ccc(C2CCCc3c2[nH]c2ccc(Br)cc32)cc1 (centres unmarked) [Compound 192],
,,0.01 to 0.04,Oc1ccc(C2CCCc3c2[nH]c2ccc(Br)cc32)cc1 (centres unmarked) [Compound 193],
,,< 0.01,Brc1ccc2[nH]c3c(c2c1)CCCC3c1ccc(OCC2CO2)cc1 (centres unmarked) [Compound 194],
,,< 0.01,OC(COc1ccc(C2CCCc3c2[nH]c2ccc(Br)cc32)cc1)Cn1ccnc1 (centres unmarked) [Compound 195],
,,< 0.01,OC(COc1ccc(C2CCCc3c2[nH]c2ccc(Br)cc32)cc1)CN1CCOCC1 (centres unmarked) [Compound 196],
,,< 0.01,CC(=O)N1CCN(CC(O)COc2ccc(C3CCCc4c3[nH]c3ccc(Br)cc43)cc2)CC1 (centres unmarked) [Compound 197],
,,< 0.01,COCCN(CCOC)CC(O)COc1ccc(C2CCCc3c2[nH]c2ccc(Br)cc32)cc1 (centres unmarked) [Compound 198],
,,< 0.01,OC(COc1ccc(C2CCCc3c2[nH]c2ccc(Br)cc32)cc1)CN1CCSCC1 (centres unmarked) [Compound 199],
,,< 0.01,COCCN(C)CC(O)COc1ccc(C2CCCc3c2[nH]c2ccc(Br)cc32)cc1 (centres unmarked) [Compound 200],
,,0.01 to 0.04,CN1CCN(CC(O)COc2ccc(C3CCCc4c3[nH]c3ccc(Br)cc43)cc2)CC1 (centres unmarked) [Compound 201],
,,< 0.01,OC(COc1ccc(C2CCCc3c2[nH]c2ccc(Br)cc32)cc1)Cn1ccnn1 (centres unmarked) [Compound 202],
,,0.01 to 0.04,OC(COc1ccc(C2CCCc3c2[nH]c2ccc(Br)cc32)cc1)Cn1cncn1 (centres unmarked) [Compound 203],
,,0.01 to 0.04,CC(=O)N1CCN(CCCOc2ccc(C3CCCc4c3[nH]c3ccc(Br)cc43)cc2)CC1 (centres unmarked) [Compound 204],
,,0.01 to 0.04,COCCN(CCCOc1ccc(C2CCCc3c2[nH]c2ccc(Br)cc32)cc1)CCOC (centres unmarked) [Compound 205],
,,< 0.01,Brc1ccc2[nH]c3c(c2c1)CCCC3c1ccc(OCCCN2CCSCC2)cc1 (centres unmarked) [Compound 206],
,,0.01 to 0.04,COCCN(C)CCCOc1ccc(C2CCCc3c2[nH]c2ccc(Br)cc32)cc1 (centres unmarked) [Compound 207],
,,0.04 to 0.2,CN1CCN(CCCOc2ccc(C3CCCc4c3[nH]c3ccc(Br)cc43)cc2)CC1 (centres unmarked) [Compound 208],
,,< 0.01,Brc1ccc2[nH]c3c(c2c1)CCCC3c1ccc(OCCCn2ccnn2)cc1 (centres unmarked) [Compound 209],
,,< 0.01,Brc1ccc2[nH]c3c(c2c1)CCCC3c1ccc(OCCCN2CCOCC2)cc1 (centres unmarked) [Compound 210],
,,< 0.01,Brc1ccc2[nH]c3c(c2c1)CCCC3c1ccc(OCCCn2ccnc2)cc1 (centres unmarked) [Compound 211],
,,< 0.01,OCC(O)COc1ccc(C2CCCc3c2[nH]c2ccc(Br)cc32)cc1 (centres unmarked) [Compound 212],
,,0.01 to 0.04,OCC(O)COc1ccc(C2CCCc3c2[nH]c2ccc(Cl)cc32)cc1 (centres unmarked) [Compound 213],
,,0.04 to 0.2,CC(=O)N1CCN(CC(O)COc2ccc(C3CCCc4c3[nH]c3ccc(Cl)cc43)cc2)CC1 (centres unmarked) [Compound 214],
,,0.01 to 0.04,OC(COc1ccc(C2CCCc3c2[nH]c2ccc(Cl)cc32)cc1)CN1CCOCC1 (centres unmarked) [Compound 215],
,,0.01 to 0.04,COCCN(CCOC)CC(O)COc1ccc(C2CCCc3c2[nH]c2ccc(Cl)cc32)cc1 (centres unmarked) [Compound 216],
,,0.01 to 0.04,OC(COc1ccc(C2CCCc3c2[nH]c2ccc(Cl)cc32)cc1)CN1CCSCC1 (centres unmarked) [Compound 217],
,,0.01 to 0.04,COCCN(C)CC(O)COc1ccc(C2CCCc3c2[nH]c2ccc(Cl)cc32)cc1 (centres unmarked) [Compound 218],
,,0.01 to 0.04,CN1CCN(CC(O)COc2ccc(C3CCCc4c3[nH]c3ccc(Cl)cc43)cc2)CC1 (centres unmarked) [Compound 219],
